System: MV-4-11 cells
Experiment: Gene expression microarray analysis (Affymetrix PrimeView) and GSEA
Type: cell-based, human
Set-up: RFU PODN (11730768_x_at) / Fold change /veh PODN (11730768_x_at) / RFU LINC00158 (11744669_a_at) / Fold change /veh LINC00158 (11744669_a_at) / RFU DUSP10 (11751237_a_at) / Fold change /veh DUSP10 (11751237_a_at) / RFU ID3 (11757404_x_at) / Fold change /veh ID3 (11757404_x_at) / RFU PLEKHG5 (11737974_s_at) / Fold change /veh PLEKHG5 (11737974_s_at) / RFU LRRC4B (11730491_at) / Fold change /veh LRRC4B (11730491_at) / RFU GIMAP4 (11747438_a_at) / Fold change /veh GIMAP4 (11747438_a_at) / RFU KRT8 (11758183_x_at) / Fold change /veh KRT8 (11758183_x_at) / RFU CNN1 (11734310_a_at) / Fold change /veh CNN1 (11734310_a_at) / RFU VPS37D (11726825_at) / Fold change /veh VPS37D (11726825_at) / RFU C10orf10 (11716522_x_at) / Fold change /veh C10orf10 (11716522_x_at) / RFU KIR2DL2 /// KIR2DL4 /// KIR2DL5A /// KIR2DL5B /// KIR2DS1 /// KIR2DS2 /// KIR2DS3 /// KIR2DS4 /// KIR3DL3 /// KIR3DL3 /// KIR3DS1 (11738374_at) / Fold change /veh KIR2DL2 /// KIR2DL4 /// KIR2DL5A /// KIR2DL5B /// KIR2DS1 /// KIR2DS2 /// KIR2DS3 /// KIR2DS4 /// KIR3DL3 /// KIR3DL3 /// KIR3DS1 (11738374_at) / RFU C1QL1 (11718748_at) / Fold change /veh C1QL1 (11718748_at) / RFU TMPRSS4 (11747572_a_at) / Fold change /veh TMPRSS4 (11747572_a_at) / RFU HAMP (11756126_x_at) / Fold change /veh HAMP (11756126_x_at) / RFU RNFT2 (11725882_a_at) / Fold change /veh RNFT2 (11725882_a_at) / RFU NR4A2 (11747474_a_at) / Fold change /veh NR4A2 (11747474_a_at) / RFU ABCC12 (11746883_a_at) / Fold change /veh ABCC12 (11746883_a_at) / RFU TMEM136 (11760407_x_at) / Fold change /veh TMEM136 (11760407_x_at) / RFU CLDN22 /// WWC2 (11732394_at) / Fold change /veh CLDN22 /// WWC2 (11732394_at) / RFU HLA-DPB1 (11760878_x_at) / Fold change /veh HLA-DPB1 (11760878_x_at) / RFU SPINT1 (11716480_a_at) / Fold change /veh SPINT1 (11716480_a_at) / RFU GAP43 (11754022_s_at) / Fold change /veh GAP43 (11754022_s_at) / RFU A4GNT (11735810_at) / Fold change /veh A4GNT (11735810_at) / RFU PRB3 (11715151_x_at) / Fold change /veh PRB3 (11715151_x_at) / RFU TUBB4B (11761932_at) / Fold change /veh TUBB4B (11761932_at) / RFU CAPN14 (11732068_a_at) / Fold change /veh CAPN14 (11732068_a_at) / RFU TMCC2 (11721928_a_at) / Fold change /veh TMCC2 (11721928_a_at) / RFU IRGQ (11745062_a_at) / Fold change /veh IRGQ (11745062_a_at) / RFU FAM174B (11720279_a_at) / Fold change /veh FAM174B (11720279_a_at) / RFU TMPRSS4 (11748680_a_at) / Fold change /veh TMPRSS4 (11748680_a_at) / RFU FAM212B (11763350_a_at) / Fold change /veh FAM212B (11763350_a_at) / RFU PLEKHG5 (11743358_a_at) / Fold change /veh PLEKHG5 (11743358_a_at) / RFU ZSCAN30 (11745921_a_at) / Fold change /veh ZSCAN30 (11745921_a_at) / RFU CMKLR1 (11741424_a_at) / Fold change /veh CMKLR1 (11741424_a_at) / RFU LOC101060620 /// MAPK8IP1 (11723275_at) / Fold change /veh LOC101060620 /// MAPK8IP1 (11723275_at) / RFU SPTSSB (11747773_x_at) / Fold change /veh SPTSSB (11747773_x_at) / RFU PRSS12 (11739890_at) / Fold change /veh PRSS12 (11739890_at) / RFU BIN1 (11741810_x_at) / Fold change /veh BIN1 (11741810_x_at) / RFU WNT11 (11732464_a_at) / Fold change /veh WNT11 (11732464_a_at) / RFU C10orf10 (11716521_a_at) / Fold change /veh C10orf10 (11716521_a_at) / RFU C5orf56 (11738089_at) / Fold change /veh C5orf56 (11738089_at) / RFU CYB561 (11721691_x_at) / Fold change /veh CYB561 (11721691_x_at) / RFU ANKRD19P (11752326_a_at) / Fold change /veh ANKRD19P (11752326_a_at) / RFU OR2T12 /// OR2T33 /// OR2T8 (11738714_s_at) / Fold change /veh OR2T12 /// OR2T33 /// OR2T8 (11738714_s_at) / RFU VCAN (11748164_a_at) / Fold change /veh VCAN (11748164_a_at) / RFU JSRP1 (11732532_at) / Fold change /veh JSRP1 (11732532_at) / RFU KRTAP10-11 (11738290_x_at) / Fold change /veh KRTAP10-11 (11738290_x_at) / RFU MYO3A (11730013_a_at) / Fold change /veh MYO3A (11730013_a_at) / RFU EBF3 (11725865_a_at) / Fold change /veh EBF3 (11725865_a_at) / RFU CAMK2N1 (11719241_x_at) / Fold change /veh CAMK2N1 (11719241_x_at) / RFU C5orf56 (11738088_a_at) / Fold change /veh C5orf56 (11738088_a_at) / RFU OLFML3 (11715873_a_at) / Fold change /veh OLFML3 (11715873_a_at) / RFU LOC100653217 /// NTM (11731650_a_at) / Fold change /veh LOC100653217 /// NTM (11731650_a_at) / RFU MAPK11 (11762145_a_at) / Fold change /veh MAPK11 (11762145_a_at) / RFU FIZ1 (11724087_x_at) / Fold change /veh FIZ1 (11724087_x_at) / RFU OASL (11726364_x_at) / Fold change /veh OASL (11726364_x_at) / RFU SOX15 (11748057_x_at) / Fold change /veh SOX15 (11748057_x_at) / RFU CD79A (11719716_a_at) / Fold change /veh CD79A (11719716_a_at) / RFU HIST1H1D (11736915_at) / Fold change /veh HIST1H1D (11736915_at) / RFU CASKIN2 (11723855_a_at) / Fold change /veh CASKIN2 (11723855_a_at) / RFU LOC730098 (11760151_x_at) / Fold change /veh LOC730098 (11760151_x_at) / RFU OR4N2 (11742367_at) / Fold change /veh OR4N2 (11742367_at) / RFU PRRT2 (11749266_a_at) / Fold change /veh PRRT2 (11749266_a_at) / RFU SNX32 (11753110_a_at) / Fold change /veh SNX32 (11753110_a_at) / RFU CDHR5 (11726645_a_at) / Fold change /veh CDHR5 (11726645_a_at) / RFU RCAN1 (11760418_a_at) / Fold change /veh RCAN1 (11760418_a_at) / RFU FAM167A (11723789_a_at) / Fold change /veh FAM167A (11723789_a_at) / RFU FAM26E (11764081_at) / Fold change /veh FAM26E (11764081_at) / RFU ISYNA1 (11749810_s_at) / Fold change /veh ISYNA1 (11749810_s_at) / RFU ACY1 (11761880_at) / Fold change /veh ACY1 (11761880_at) / RFU 11764098_at / Fold change /veh 11764098_at / RFU SAMD14 (11745864_x_at) / Fold change /veh SAMD14 (11745864_x_at) / RFU NPB (11741838_a_at) / Fold change /veh NPB (11741838_a_at) / RFU TMPRSS6 (11731388_a_at) / Fold change /veh TMPRSS6 (11731388_a_at) / RFU KRTAP10-2 (11738614_at) / Fold change /veh KRTAP10-2 (11738614_at) / RFU ARHGAP8 /// PRR5-ARHGAP8 (11727945_x_at) / Fold change /veh ARHGAP8 /// PRR5-ARHGAP8 (11727945_x_at) / RFU KRTAP5-7 /// NADSYN1 (11734609_at) / Fold change /veh KRTAP5-7 /// NADSYN1 (11734609_at) / RFU RASL12 (11751679_a_at) / Fold change /veh RASL12 (11751679_a_at) / RFU CDKN2B (11736163_a_at) / Fold change /veh CDKN2B (11736163_a_at) / RFU PRF1 (11729649_at) / Fold change /veh PRF1 (11729649_at) / RFU, ZNF638 /// ZNF638-IT1 / Fold change vs veh, ZNF638 /// ZNF638-IT1 / RFU, PANK3 / Fold change vs veh, PANK3 / RFU, SH3YL1 / Fold change vs veh, SH3YL1 / RFU, ZEB2 / Fold change vs veh, ZEB2 / RFU, NRIP1 / Fold change vs veh, NRIP1 / RFU, PTTG1IP / Fold change vs veh, PTTG1IP / RFU, CAPN2 / Fold change vs veh, CAPN2 / RFU, MED14 / Fold change vs veh, MED14 / RFU, SNORA58 / Fold change vs veh, SNORA58 / RFU, C1orf63 / Fold change vs veh, C1orf63 / RFU, LRRFIP1 / Fold change vs veh, LRRFIP1 / RFU, NDUFAF7 / Fold change vs veh, NDUFAF7 / RFU, SLC12A2 / Fold change vs veh, SLC12A2 / RFU, IBTK / Fold change vs veh, IBTK / RFU, ESF1 / Fold change vs veh, ESF1 / Fold change vs veh, TMEM50B / RFU, TAOK1 / Fold change vs veh, TAOK1 / RFU, ACBD3 / Fold change vs veh, ACBD3 / RFU, TMA16 / Fold change vs veh, TMA16 / RFU, RWDD3 / Fold change vs veh, RWDD3 / RFU, BCAT1 / Fold change vs veh, BCAT1 / RFU, EDEM3 / Fold change vs veh, EDEM3 / RFU, TMEM33 / Fold change vs veh, TMEM33 / RFU, WDR75 / Fold change vs veh, WDR75 / RFU, AHCTF1 / Fold change vs veh, AHCTF1 / RFU, TFRC / Fold change vs veh, TFRC / RFU, ZDHHC17 / Fold change vs veh, ZDHHC17 / RFU, NOM1 / Fold change vs veh, NOM1 / RFU, ARL8B / Fold change vs veh, ARL8B / RFU, ZBTB11 / Fold change vs veh, ZBTB11 / RFU, TAMM41 / Fold change vs veh, TAMM41 / RFU, KIAA1704 /// LOC100996395 / Fold change vs veh, KIAA1704 /// LOC100996395 / RFU, ING1 / Fold change vs veh, ING1 / RFU, TRMT61B / Fold change vs veh, TRMT61B / RFU, FUBP3 / Fold change vs veh, FUBP3 / RFU, TP53 / Fold change vs veh, TP53 / RFU, TNKS2 / Fold change vs veh, TNKS2 / RFU, ZFP14 / Fold change vs veh, ZFP14 / RFU, ACTR2 / Fold change vs veh, ACTR2 / RFU, PPP3R1 / Fold change vs veh, PPP3R1 / RFU, PIK3R1 / Fold change vs veh, PIK3R1 / RFU, HNRNPA1 / Fold change vs veh, HNRNPA1 / RFU, RNF170 / Fold change vs veh, RNF170 / RFU, ZNF28 / Fold change vs veh, ZNF28 / RFU, RNGTT / Fold change vs veh, RNGTT / RFU, OGT / Fold change vs veh, OGT / RFU, BRD1 / Fold change vs veh, BRD1 / RFU, MARS / Fold change vs veh, MARS / RFU, ZNF655 / Fold change vs veh, ZNF655 / RFU, FAHD1 / Fold change vs veh, FAHD1 / RFU, BDP1 / Fold change vs veh, BDP1 / RFU, LRRCC1 / Fold change vs veh, LRRCC1 / RFU, ARID1A / Fold change vs veh, ARID1A / RFU, ZNF146 / Fold change vs veh, ZNF146 / RFU, ZNF330 / Fold change vs veh, ZNF330 / RFU, GPN3 / Fold change vs veh, GPN3 / RFU, C9orf123 / Fold change vs veh, C9orf123 / RFU, N4BP2L2 / Fold change vs veh, N4BP2L2 / RFU, ARFIP1 / Fold change vs veh, ARFIP1 / RFU, FAM179B / Fold change vs veh, FAM179B / RFU, BCL10 / Fold change vs veh, BCL10 / RFU, UHRF1BP1L / Fold change vs veh, UHRF1BP1L / RFU, BET1 / Fold change vs veh, BET1 / RFU, CNOT2 / Fold change vs veh, CNOT2 / RFU, ZNF268 / Fold change vs veh, ZNF268 / Fold change vs veh, ZNF507 / RFU, DGCR2 / Fold change vs veh, DGCR2 / RFU, WDSUB1 / Fold change vs veh, WDSUB1 / Fold change vs veh, HSP90B1 /// MIR3652 / RFU, ADSS / Fold change vs veh, ADSS / RFU, GK / Fold change vs veh, GK / RFU, ZNF148 / Fold change vs veh, ZNF148 / RFU, TAF9 / Fold change vs veh, TAF9 / RFU, SLC1A5 / Fold change vs veh, SLC1A5 / RFU, SLMO2 / Fold change vs veh, SLMO2 / RFU, ABCC4 / Fold change vs veh, ABCC4 / RFU, LOC101060439 /// RAP1B / Fold change vs veh, LOC101060439 /// RAP1B / RFU, RFX7 / Fold change vs veh, RFX7 / RFU, GTPBP10 / Fold change vs veh, GTPBP10 / RFU, CNEP1R1 / Fold change vs veh, CNEP1R1 / RFU, BIVM-ERCC5 /// ERCC5 / Fold change vs veh, BIVM-ERCC5 /// ERCC5 / RFU, ILF3 / Fold change vs veh, ILF3 / RFU 11762660_at / Fold change /veh 11762660_at / RFU VCAN (11757783_s_at) / Fold change /veh VCAN (11757783_s_at) / RFU DDX43 (11728927_at) / Fold change /veh DDX43 (11728927_at) / RFU KRT8 (11758188_x_at) / Fold change /veh KRT8 (11758188_x_at) / RFU NKD1 (11759106_at) / Fold change /veh NKD1 (11759106_at) / RFU SRD5A1 (11742802_a_at) / Fold change /veh SRD5A1 (11742802_a_at) / RFU TPSAB1 /// TPSB2 (11721975_s_at) / Fold change /veh TPSAB1 /// TPSB2 (11721975_s_at) / RFU GSTM3 (11746129_a_at) / Fold change /veh GSTM3 (11746129_a_at) / RFU IL23R (11737362_x_at) / Fold change /veh IL23R (11737362_x_at) / RFU TMEM51 (11727254_a_at) / Fold change /veh TMEM51 (11727254_a_at) / RFU PIWIL2 (11732686_x_at) / Fold change /veh PIWIL2 (11732686_x_at) / RFU ORM1 (11744905_x_at) / Fold change /veh ORM1 (11744905_x_at) / RFU CCDC152 (11743942_at) / Fold change /veh CCDC152 (11743942_at) / RFU ECM1 (11717891_a_at) / Fold change /veh ECM1 (11717891_a_at) / RFU IL23R (11748794_a_at) / Fold change /veh IL23R (11748794_a_at) / RFU TNFAIP8L3 (11732012_x_at) / Fold change /veh TNFAIP8L3 (11732012_x_at) / RFU MBOAT4 (11741988_at) / Fold change /veh MBOAT4 (11741988_at) / RFU 11764193_at / Fold change /veh 11764193_at / RFU TMEM53 (11763286_at) / Fold change /veh TMEM53 (11763286_at) / RFU MAGEB2 (11727129_at) / Fold change /veh MAGEB2 (11727129_at) / RFU TMEM200A (11744735_a_at) / Fold change /veh TMEM200A (11744735_a_at) / RFU CCDC152 (11751479_a_at) / Fold change /veh CCDC152 (11751479_a_at) / RFU FAM211A (11726209_a_at) / Fold change /veh FAM211A (11726209_a_at) / RFU RGS16 (11746705_a_at) / Fold change /veh RGS16 (11746705_a_at) / RFU VCAN (11755009_s_at) / Fold change /veh VCAN (11755009_s_at) / RFU RHOB (11743442_s_at) / Fold change /veh RHOB (11743442_s_at) / RFU RGS16 (11720943_a_at) / Fold change /veh RGS16 (11720943_a_at) / RFU RGS16 (11720944_at) / Fold change /veh RGS16 (11720944_at) / RFU, VPS4B / Fold change vs veh, VPS4B / RFU, CREB1 / Fold change vs veh, CREB1 / RFU, DNAJC13 / Fold change vs veh, DNAJC13 / RFU, GNAQ / Fold change vs veh, GNAQ / RFU, CDK5R1 / Fold change vs veh, CDK5R1 / RFU, ZRANB3 / Fold change vs veh, ZRANB3 / RFU, CUL4A / Fold change vs veh, CUL4A / RFU, CCNY / Fold change vs veh, CCNY / RFU, UFL1 / Fold change vs veh, UFL1 / RFU, COG3 / Fold change vs veh, COG3 / RFU, DIAPH2 / Fold change vs veh, DIAPH2 / RFU, SKA2 / Fold change vs veh, SKA2 / RFU, AFF3 / Fold change vs veh, AFF3 / RFU, LMF1 / Fold change vs veh, LMF1 / RFU, IPO11 / Fold change vs veh, IPO11 / RFU, DFFB / Fold change vs veh, DFFB / RFU, FOXP1 / Fold change vs veh, FOXP1 / RFU, CARD8 / Fold change vs veh, CARD8 / RFU, STRN3 / Fold change vs veh, STRN3 / RFU, ADK / Fold change vs veh, ADK / RFU, RASSF2 / Fold change vs veh, RASSF2 / RFU, WIPF1 / Fold change vs veh, WIPF1 / RFU, LARP1B / Fold change vs veh, LARP1B / RFU, RASA1 / Fold change vs veh, RASA1 / RFU, RB1 / Fold change vs veh, RB1 / RFU, PPFIA1 / Fold change vs veh, PPFIA1 / RFU, MAT2A / Fold change vs veh, MAT2A / RFU, CCT5 / Fold change vs veh, CCT5 / RFU, WDR92 / Fold change vs veh, WDR92 / RFU, CUX1 / Fold change vs veh, CUX1 / RFU, TTC7A / Fold change vs veh, TTC7A / RFU, TMEM135 / Fold change vs veh, TMEM135 / RFU, DEPTOR / Fold change vs veh, DEPTOR / RFU, CPM / Fold change vs veh, CPM / RFU, DNAJB6 / Fold change vs veh, DNAJB6 / RFU, CACNA2D3 / Fold change vs veh, CACNA2D3 / RFU, DTX4 / Fold change vs veh, DTX4 / RFU, TFCP2 / Fold change vs veh, TFCP2 / RFU, GMCL1 /// GMCL1P1 / Fold change vs veh, GMCL1 /// GMCL1P1 / RFU, AEBP2 / Fold change vs veh, AEBP2 / RFU, SNHG1 /// SNORD22 /// SNORD25 /// SNORD26 /// SNORD27 /// SNORD28 /// SNORD29 /// SNORD31 / Fold change vs veh, SNHG1 /// SNORD22 /// SNORD25 /// SNORD26 /// SNORD27 /// SNORD28 /// SNORD29 /// SNORD31 / Fold change (Aza/veh), C12orf56 (ProbeSet 11735607_a_at) / Fold change (ACY-1035/veh), C12orf56 (ProbeSet 11735607_a_at) / Fold change (Aza/veh), FGFR1OP (ProbeSet 11751329_s_at) / Fold change (ACY-1035/veh), FGFR1OP (ProbeSet 11751329_s_at) / Fold change (Aza/veh), VPS36 (ProbeSet 11739960_a_at) / Fold change (ACY-1035/veh), VPS36 (ProbeSet 11739960_a_at) / RFU SYPL1 (11715823_x_at) / Fold change /veh SYPL1 (11715823_x_at) / RFU IGFBP7 (11715501_s_at) / Fold change /veh IGFBP7 (11715501_s_at) / RFU REEP3 (11722064_at) / Fold change /veh REEP3 (11722064_at) / RFU IGLL1 (11728026_x_at) / Fold change /veh IGLL1 (11728026_x_at): dose or concentration left out as unconfirmed
Details: MV-4-11 cells, 48 hours

## Nc1ncn([C@@H]2O[C@H](CO)[C@@H](O)[C@H]2O)c(=O)n1 [azacitidine]
  RFU ID3 (11757404_x_at): 51.53 RFU

Source: PMC5218480 (PLoS ONE, 2017)
